{"source": "patent US9744175B2", "about": "“Compositions of combinations of non-covalent DNA binding agents and anti-cancer and/or anti-inflammatory agents and their use in disease treatment” (INDUS PHARMACEUTICALS, INC., priority 2012, dated 2017)", "key": {"HCT116 (mlh−)": {"tested_on": "HCT116 (mlh−)", "test": "siRNA inhibition of p53 and REV functions, alamar blue growth inhibition", "assay_type": "cell-based, human", "procedure": "(§1) siRNA specific for different genes is purchased from Dharmacon (Thermo. Fisher Scientific Dharmacon Products, Lafayette, Colo. 80026) and the protocol recommended by the supplier is utilized. Confluent cells are trypsinized and 5000 cells are seeded in a well in the presence or absence of siRNA in 100 μL medium. The cells are incubated with siRNA for two days. A non-covalent DNA binding agent of the invention is added in a 10 μL volume and incubated for another 48 hours. After treatment with the agent, the medium is replaced with 1% alamar blue containing medium to measure fluorescence after two hours.\nas §1, with “from Dharmacon (Thermo Fisher Scientific” for “from Dharmacon (Thermo. Fisher Scientific”, “two hours. […] The results are presented in FIGS. 14-18 (SEQ ID NO:3-12, respectively) and Table 7.” for “two hours.”"}, "U2OS Wild type": {"tested_on": "U2OS Wild type", "test": "siRNA inhibition of MMR, p53 and REV functions, alamar blue growth inhibition", "assay_type": "cell-based, human", "procedure": "as §1\nas §1, with “from Dharmacon (Thermo Fisher Scientific” for “from Dharmacon (Thermo. Fisher Scientific”, “two hours. […] The results are presented in FIGS. 14-18 (SEQ ID NO:3-12, respectively) and Table 7.” for “two hours.”"}, "Wild type yeast": {"tested_on": "Wild type yeast", "test": "Alamar Blue cell survival assay in yeast cells", "assay_type": "cell-based", "procedure": "(§2) The cells are diluted 100-fold in yeast complete medium. 100 μL of diluted cells are seeded in 96 well plates with or without a non-covalent DNA binding compound and incubated for 24 hours at 30° C. The following day, an equal volume of yeast complete medium containing 1% alamar blue is added and incubated at 30° C. for two hours. Fluorescence intensity is measured in a fluorescent reader to calculate the inhibition effect of non-covalent DNA binding agents in mutant and wild type yeast cells.\n(§3) Yeast cells that carry mutations in different genes involved in homologous recombination (rad 50, rad51, rad52, and rad57) and nucleotide excision/double strand repair (rad1) are grown to stationary culture overnight."}, "yeast rad50 mutation": {"tested_on": "yeast rad50 mutation", "test": "Alamar Blue cell survival assay in yeast cells", "assay_type": "cell-based", "procedure": "as §2, §3"}, "yeast rad52 mutation": {"tested_on": "yeast rad52 mutation", "test": "Alamar Blue cell survival assay in yeast cells", "assay_type": "cell-based", "procedure": "as §2, §3"}, "yeast rad1 mutation": {"tested_on": "yeast rad1 mutation", "test": "Alamar Blue cell survival assay in yeast cells", "assay_type": "cell-based", "procedure": "as §2, §3"}, "yeast rad51 mutation": {"tested_on": "yeast rad51 mutation", "test": "Alamar Blue cell survival assay in yeast cells", "assay_type": "cell-based", "procedure": "as §2, §3"}}}
{"smiles": "CC[C@@]1(O)C(=O)OCc2c1cc1n(c2=O)Cc2cc3ccccc3nc2-1", "note": "[Camptothecin, (S)-4-ethyl-4-hydroxy-1H-pyrano[3′,4′:6,7]indolizino[1,2-b]quinoline-3,14-(4H,12H)-dione, reference compound]", "values": [{"measurement": "IC50", "setting": "HCT116 (mlh−); Homo sapiens, HCT-116, no siRNA knock out, read-out: IC50, Control", "result": 0.25, "unit": "µM"}, {"measurement": "Fold improvement in IC50, p53", "setting": "HCT116 (mlh−); p53 siRNA vs control", "result": 1.3, "unit": "fold"}, {"measurement": "Fold improvement in IC50, rev", "setting": "HCT116 (mlh−); rev siRNA vs control", "result": 1.7, "unit": "fold"}]}
{"smiles": "COc1cccc2c1C(=O)c1c(O)c3c(c(O)c1C2=O)C[C@@](O)(C(=O)CO)C[C@@H]3OC1CC(N)C(O)C(C)O1", "note": "(stereo partly drawn) [Doxorubicin, (8S,10S)-10-(4-amino-5-hydroxy-6-methyl-tetrahydro-2H-pyran-2-yloxy)-6,8,11-trihydroxy-8-(2-hydroxyacetyl)-1-methoxy-7,8,9,10-tetrahydrotetracene-5,12-dione, reference compound]", "values": [{"measurement": "IC50", "setting": "U2OS Wild type; Homo sapiens, no siRNA knock out, read-out: IC50, Control", "result": 0.7, "unit": "µM"}, {"measurement": "Fold improvement in IC50, mlh1", "setting": "U2OS Wild type; mlh1 siRNA vs control", "result": 0.23, "unit": "fold"}, {"measurement": "Fold improvement in IC50, p53", "setting": "U2OS Wild type; p53 siRNA vs control", "result": 0.7, "unit": "fold"}, {"measurement": "Fold improvement in IC50, rev", "setting": "U2OS Wild type; rev siRNA vs control", "result": 0.35, "unit": "fold"}]}
{"smiles": "COc1cc2c(cc1OCCCCOc1cc(-c3ccc(F)cc3)nc(C)n1)N=C[C@@H]1CCCN1C2=O", "note": "[NSC 723732]", "values": [{"measurement": "IC50", "setting": "Wild type yeast", "result": "> 250", "unit": "µM"}, {"measurement": "IC50", "setting": "yeast rad50 mutation", "result": "> 250", "unit": "µM"}, {"measurement": "IC50", "setting": "yeast rad52 mutation", "result": 105, "unit": "µM"}, {"measurement": "IC50", "setting": "yeast rad1 mutation", "result": "> 250", "unit": "µM"}, {"measurement": "IC50", "setting": "yeast rad51 mutation", "result": 100, "unit": "µM"}]}
